Results on 35 compounds are retold here after PMC9036655 (RSC Advances, 2021).

For the first assay, the system named is M. tuberculosis H37Rv. The assay can be described thus: Antimycobacterial activity against M. tuberculosis H37Rv. The settings on record: M. tuberculosis H37Rv; 20 μg mL^−1. The assay is classed as cell-based, Mycobacterium tuberculosis.
Regarding “N-((6-Ethyl-4-methyl-2-oxo-1,2-dihydropyridin-3-yl)methyl)-5-nitrofuran-2-carboxamide [8a2]”, the “% inhibition 20 μg mL^−1” value worked out at 98.2%.
Same read-out and setting: to `NNC(=O)c1ccncc1` [Isoniazid, reference compound] belongs 99.4%.

Still in this assay, the particulars now being: M. tuberculosis H37Rv; MIC90, average of three measurements.
In general, MIC refers to the smallest concentration in the dilution series that meets the test's criterion for growth inhibition. Read a high MIC as a less susceptible organism. “4-Methyl-3-(((1-(4-(trifluoromethoxy)benzoyl)piperidin-4-yl)amino)methyl)-5,6,7,8-tetrahydroquinolin-2(1H)-one [6d10]” displayed a minimal inhibitory concentration (MIC) of more than 50 µg/mL.

Still in this assay, the particulars now being: Mycobacterium tuberculosis, H37RV, read-out: % inhibition 20 μg mL^−1, M. tuberculosis H37Rv; 20 μg mL^−1.
A word on the inhibition: it is how much of the control response was suppressed. Take `CCc1cc(CC)c(CNC(=O)c2ccc(C(F)(F)F)nc2)c(=O)[nH]1` [8a5, N-((4,6-Diethyl-2-oxo-1,2-dihydropyridin-3-yl)methyl)-6-(trifluoromethyl)nicotinamide]: the inhibition at 20 µg/mL was 94.4%.
In the case of `Cc1[nH]c(=O)c(CNC(=O)c2ccc([N+](=O)[O-])s2)c2c1CCCC2` [6b32, N-((1-Methyl-3-oxo-2,3,5,6,7,8-hexahydroisoquinolin-4-yl)methyl)-5-nitrothiophene-2-carboxamide], the inhibition at 20 µg/mL was 96.4%.
Still for that read-out and setting: to `Cc1[nH]c(=O)c(CNC(=O)c2ccc([N+](=O)[O-])o2)c2c1CCCC2` [6b29, N-((1-Methyl-3-oxo-2,3,5,6,7,8-hexahydroisoquinolin-4-yl)methyl)-5-nitrofuran-2-carboxamide] belongs 100%; to `Cc1[nH]c(=O)c(CNC(=O)c2ccc([N+](=O)[O-])nc2)c2c1CCCC2` [6b28, N-((1-Methyl-3-oxo-2,3,5,6,7,8-hexahydroisoquinolin-4-yl)methyl)-6-nitronicotinamide], 98.9%; to `Cc1[nH]c(=O)c(CNC(=O)c2ccno2)c2c1CCCC2` [6b36, N-((1-Methyl-3-oxo-2,3,5,6,7,8-hexahydroisoquinolin-4-yl)methyl)isoxazole-5-carboxamide], 25.1%.
In the case of `Cc1ccc(C(=O)NCc2c3c(c(C)[nH]c2=O)CCCC3)cn1` [6b27, 6-Methyl-N-((1-methyl-3-oxo-2,3,5,6,7,8-hexahydroisoquinolin-4-yl)methyl)nicotinamide], the inhibition at 20 µg/mL is 98.6%.
Take `Cc1[nH]c(=O)c(CNC(=O)c2cn[nH]c2)c2c1CCCC2` [6b35, N-((1-Methyl-3-oxo-2,3,5,6,7,8-hexahydroisoquinolin-4-yl)methyl)-1H-pyrazole-4-carboxamide]: the inhibition at 20 µg/mL is 94.6%.
For the compound `Cc1[nH]c(=O)c(CNC(=O)c2ccc(Br)o2)c2c1CCCC2` [6b31, 5-Bromo-N-((1-methyl-3-oxo-2,3,5,6,7,8-hexahydroisoquinolin-4-yl)methyl)furan-2-carboxamide], the inhibition at 20 µg/mL was 97.7%.
Still for that read-out and setting: then `COc1cc(OC)cc(-c2ccc(C(=O)NCc3c(C)cc(-c4ccccc4)[nH]c3=O)cc2)c1` [7b2, 3′,5′-Dimethoxy-N-((4-methyl-2-oxo-6-phenyl-1,2-dihydropyridin-3-yl)methyl)-[1,1′-biphenyl]-4-carboxamide], with 33%.
With `Cc1[nH]c(=O)c(CNC(=O)c2ccc(Cl)nc2)c2c1CCCC2` [6b24, 6-Chloro-N-((1-methyl-3-oxo-2,3,5,6,7,8-hexahydroisoquinolin-4-yl)methyl)nicotinamide], the inhibition at 20 µg/mL stood at 98.3%.
Take `Cc1[nH]c(=O)c(CNCc2ccc(C(F)(F)F)cc2)c2c1CCCC2` [10a1, 1-Methyl-4-(((4-(trifluoromethyl)benzyl)amino)methyl)-5,6,7,8-tetrahydroisoquinolin-3(2H)-one]: the inhibition at 20 µg/mL amounted to 65.7%.
Still for that read-out and setting: then `Cc1cc(C)c(CNC(=O)c2ccc([N+](=O)[O-])o2)c(=O)[nH]1` [8a1, N-((4,6-Dimethyl-2-oxo-1,2-dihydropyridin-3-yl)methyl)-5-nitrofuran-2-carboxamide], with 75.3%; and `NNC(=O)c1ccncc1` [Isoniazid, reference compound], with 98.9%.
Regarding `Cc1[nH]c(=O)c(CNS(=O)(=O)c2ccc(C(F)(F)F)nc2)c2c1CCCC2` [10a2, N-((1-Methyl-3-oxo-2,3,5,6,7,8-hexahydroisoquinolin-4-yl)methyl)-6-(trifluoromethyl)pyridine-3-sulfonamide], the inhibition at 20 µg/mL was determined as 92.7%.
As to `Cc1[nH]c(=O)c(CNC(=O)c2cc([N+](=O)[O-])co2)c2c1CCCC2` [6b30, N-((1-Methyl-3-oxo-2,3,5,6,7,8-hexahydroisoquinolin-4-yl)methyl)-4-nitrofuran-2-carboxamide], the inhibition at 20 µg/mL is 78.2%.
Turning to `CCc1cc(CC)c(CNC(=O)c2ccc([N+](=O)[O-])o2)c(=O)[nH]1` [8a3, N-((4,6-Diethyl-2-oxo-1,2-dihydropyridin-3-yl)methyl)-5-nitrofuran-2-carboxamide], the inhibition at 20 µg/mL was 98.1%.
Consider `Cc1[nH]c(=O)c(C(=O)Nc2ccc(C(F)(F)F)cc2)c2c1CCCC2` [10a4, 1-Methyl-3-oxo-N-(4-(trifluoromethyl)phenyl)-2,3,5,6,7,8-hexahydroisoquinoline-4-carboxamide], for which the inhibition at 20 µg/mL came to 36.8%.
On the same count and under the same terms, to `Cc1[nH]c(=O)c(CNC(=O)c2ccc(Br)nc2)c2c1CCCC2` [6b25, 6-Bromo-N-((1-methyl-3-oxo-2,3,5,6,7,8-hexahydroisoquinolin-4-yl)methyl)nicotinamide] belongs 98.9%; to `Cc1cc(C)c(CNC(=O)c2ccc(C(F)(F)F)cc2)c(=O)[nH]1` [8a4, N-((4,6-Dimethyl-2-oxo-1,2-dihydropyridin-3-yl)methyl)-4-(trifluoromethyl)benzamide], 87.6%; to `Cc1[nH]c(=O)c(CNC(=O)Cc2ccc(C(F)(F)F)cc2)c2c1CCCC2` [10a5, N-((1-Methyl-3-oxo-2,3,5,6,7,8-hexahydroisoquinolin-4-yl)methyl)-2-(4-(trifluoromethyl)phenyl)acetamide], 99.3%.
For the compound `COc1cc(OC)cc(-c2ccc(C(=O)NCc3c(C)cc(C4CC4)[nH]c3=O)cc2)c1` [7a2, N-((6-Cyclopropyl-4-methyl-2-oxo-1,2-dihydropyridin-3-yl)methyl)-3′,5′-dimethoxy-[1,1′-biphenyl]-4-carboxamide], the inhibition at 20 µg/mL turned out to be 21%.

The same assay, now with this note: Mycobacterium tuberculosis, H37RV, read-out: % inhibition 50 μg mL^−1, M. tuberculosis H37Rv; 50 μg mL^−1.
As to `Cc1[nH]c(=O)c(CNC(=O)c2ccc([N+](=O)[O-])s2)c2c1CCC2` [6a1, N-((1-Methyl-3-oxo-3,5,6,7-tetrahydro-2H-cyclopenta[c]pyridin-4-yl)methyl)-5-nitrothiophene-2-carboxamide], the inhibition at 50 µg/mL was 53%.
Regarding `Cc1c(CNC(=O)c2ccc(C(F)(F)F)nc2)c(=O)[nH]c2ccccc12` [9a1, N-((4-Methyl-2-oxo-1,2-dihydroquinolin-3-yl)methyl)-6-(trifluoromethyl)nicotinamide], the inhibition at 50 µg/mL was 2%.
With `Cc1c2c([nH]c(=O)c1CNC(=O)c1ccc(C(F)(F)F)nc1Cl)CCCC2` [6d7, 2-Chloro-N-((4-methyl-2-oxo-1,2,5,6,7,8-hexahydroquinolin-3-yl)methyl)-6-(trifluoromethyl)nicotinamide], the inhibition at 50 µg/mL was determined as 99%.
With `Cc1[nH]c(=O)c(CNC(=O)c2ccc(F)nc2)c2c1CCC2` [6a2, 6-Fluoro-N-((1-methyl-3-oxo-3,5,6,7-tetrahydro-2H-cyclopenta[c]pyridin-4-yl)methyl)nicotinamide], the inhibition at 50 µg/mL came out at 14%.
For `COc1cc(OC)cc(-c2ccc(C(=O)NCc3c(C)c4ccccc4[nH]c3=O)cc2)c1` [9a2, 3′,5′-Dimethoxy-N-((4-methyl-2-oxo-1,2-dihydroquinolin-3-yl)methyl)-[1,1′-biphenyl]-4-carboxamide], the inhibition at 50 µg/mL is 15%.
Turning to `Cc1c(CNC(=O)c2cnc(C(F)(F)F)nc2)c(=O)[nH]c2ccccc12` [9a4, N-((4-Methyl-2-oxo-1,2-dihydroquinolin-3-yl)methyl)-2-(trifluoromethyl)pyrimidine-5-carboxamide], the inhibition at 50 µg/mL worked out at 3%.
With `Cc1c2c([nH]c(=O)c1CNC(=O)c1ccc(-c3ccc(C(F)(F)F)nc3)cc1)CCCC2` [6d9, N-((4-Methyl-2-oxo-1,2,5,6,7,8-hexahydroquinolin-3-yl)methyl)-4-(6-(trifluoromethyl)pyridin-3-yl)benzamide], the inhibition at 50 µg/mL was 18%.
Regarding `NNC(=O)c1ccncc1` [Isoniazid, reference compound], the inhibition at 50 µg/mL was determined as 98.9%.
Regarding `Cc1[nH]c(=O)c(CNC(=O)c2ccc(Br)nc2)c2c1CCCCC2` [6c1, 6-Bromo-N-((1-methyl-3-oxo-3,5,6,7,8,9-hexahydro-2H-cyclohepta[c]pyridin-4-yl)methyl)nicotinamide], the inhibition at 50 µg/mL was determined as 33%.
Take `Cc1c(CNC(=O)c2ccc(-c3ccc(C(F)(F)F)nc3)cc2)c(=O)[nH]c2ccccc12` [9a3, N-((4-Methyl-2-oxo-1,2-dihydroquinolin-3-yl)methyl)-4-(6-(trifluoromethyl)pyridin-3-yl)benzamide]: the inhibition at 50 µg/mL was found to be 13%.
Take `COc1cc(OC)cc(C(=O)NCc2c(C)c3c([nH]c2=O)CCCC3)c1` [6d6, 3,5-Dimethoxy-N-((4-methyl-2-oxo-1,2,5,6,7,8-hexahydroquinolin-3-yl)methyl)benzamide]: the inhibition at 50 µg/mL was found to be 100%.
`Cc1c2c([nH]c(=O)c1CNC(=O)c1ccc([N+](=O)[O-])s1)CCCC2` [6d5, N-((4-Methyl-2-oxo-1,2,5,6,7,8-hexahydroquinolin-3-yl)methyl)-5-nitrothiophene-2-carboxamide]: the inhibition at 50 µg/mL came to 100%.

In the next assay the test system is Vero cells. Kind of assay: Cytotoxicity, MTT assay, Vero cells. It counts as cell-based, African green monkey. The settings on record: IC50(Vero)/MIC M. tb. A general note: Formazan colour is commonly taken as a measure of viable cells.
Consider `COc1cc(OC)cc(-c2ccc(C(=O)NCc3c4c(c(C)[nH]c3=O)CCCC4)cc2)c1` [6b6, 3′,5′-Dimethoxy-N-((1-methyl-3-oxo-2,3,5,6,7,8-hexahydroisoquinolin-4-yl)methyl)-[1,1′-biphenyl]-4-carboxamide], for which the “Selectivity index Vero” value is listed as more than 16.
In the case of `Cc1[nH]c(=O)c(CNC(=O)c2ccc([N+](=O)[O-])o2)c2c1CCCC2` [6b29, N-((1-Methyl-3-oxo-2,3,5,6,7,8-hexahydroisoquinolin-4-yl)methyl)-5-nitrofuran-2-carboxamide], the “Selectivity index Vero” value was more than 17.

The subject of a further assay is A549 cells. Kind of assay: Cytotoxicity, MTT assay, A549 cells. The note with it: Homo sapiens, A549, 72 h, read-out: IC50 A549. The assay is classed as cell-based, Human.
As a reminder, the IC50 is the midpoint of a concentration-inhibition curve. Regarding `COc1cc(OC)cc(-c2ccc(C(=O)NCc3c4c(c(C)[nH]c3=O)CCCC4)cc2)c1` [6b6, 3′,5′-Dimethoxy-N-((1-methyl-3-oxo-2,3,5,6,7,8-hexahydroisoquinolin-4-yl)methyl)-[1,1′-biphenyl]-4-carboxamide], the IC50 is more than 100 µg/mL.
In the case of `Cc1[nH]c(=O)c(CNC(=O)c2ccc([N+](=O)[O-])o2)c2c1CCCC2` [6b29, N-((1-Methyl-3-oxo-2,3,5,6,7,8-hexahydroisoquinolin-4-yl)methyl)-5-nitrofuran-2-carboxamide], the IC50 is more than 100 µg/mL.

The same assay, now with this note: IC50(A549)/MIC M. tb.
As to `COc1cc(OC)cc(-c2ccc(C(=O)NCc3c4c(c(C)[nH]c3=O)CCCC4)cc2)c1` [6b6, 3′,5′-Dimethoxy-N-((1-methyl-3-oxo-2,3,5,6,7,8-hexahydroisoquinolin-4-yl)methyl)-[1,1′-biphenyl]-4-carboxamide], the “Selectivity index A549” value was more than 33.
For `Cc1[nH]c(=O)c(CNC(=O)c2ccc([N+](=O)[O-])o2)c2c1CCCC2` [6b29, N-((1-Methyl-3-oxo-2,3,5,6,7,8-hexahydroisoquinolin-4-yl)methyl)-5-nitrofuran-2-carboxamide], the “Selectivity index A549” value is recorded as more than 35.
